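Following 48 hours of exposure in 96-well plates, responses at five concentrations were used to interpolate endpoints linearly. Here, GI50 denotes the concentration required for 50% inhibition of growth.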 Active and inactive are the calls of the source. Rule as the data show it: active = GI50 up to about 1.1 µM and inactive = higher.

Among the test systems are SK-OV-3; MOLT-4; NCI-H23; OVCAR-8; SF-295; SF-539; IGROV-1; M14; SF-268; KM12; MDA-MB-231; BT-549; SN12C; HOP-62; RPMI-8226; OVCAR-4; 786-0; PC-3; SNB-75; HT-29.
What all share (experiment): growth of human tumour cells (NCI), 48 h

Turning to `Cn1c(=O)c2c(nc3sc4c(n32)C(=O)c2c(O)ccc(O)c2C4=O)n(C)c1=O`, the GI50 in the assay with SK-OV-3 was 40.7 µM (inactive); in the assay on MOLT-4 it was 1.31 µM (inactive); with NCI-H23, 7.55 µM (inactive); in the assay with OVCAR-8 it was 2.34 µM (inactive); in the assay with SF-295, 31.2 µM (inactive); in the assay with SF-539, 3.44 µM (inactive). In addition, the GI50 is 8.02 µM (inactive) in the assay with IGROV-1; 2.51 µM (inactive) in the assay with M14; 6.04 µM (inactive) with SF-268; 2.77 µM (inactive) in the assay on KM12; 2.28 µM (inactive) in the assay on MDA-MB-231; 5.9 µM (inactive) in the assay with BT-549. For the same molecule, the GI50 in the assay with SN12C was 1.63 µM (inactive); in the assay with HOP-62, 12.8 µM (inactive); in the assay on RPMI-8226, 0.298 µM (active); with OVCAR-4, 1.46 µM (inactive); in the assay on 786-0 it was 1.75 µM (inactive); in the assay with PC-3, 5.4 µM (inactive). For the same molecule, the GI50 is 2.99 µM (inactive) with SNB-75 and 2.19 µM (inactive) with HT-29.

Consider `Cc1ccc(C2=Nc3cccc4cccc(c34)N2)cc1`, for which the GI50 in the assay with SK-OV-3, in the assay on MOLT-4, with NCI-H23, in the assay on OVCAR-8, in the assay with SF-295 and in the assay with SF-539 was > 100 µM (inactive) each time. In addition, the GI50 in the assay on IGROV-1, in the assay with M14, in the assay on SF-268, with KM12, in the assay on MDA-MB-231 and with BT-549 was > 100 µM (inactive) each time. Also, the GI50 in the assay on SN12C, in the assay on HOP-62, in the assay on RPMI-8226, in the assay with OVCAR-4, with 786-0 and in the assay on PC-3 was > 100 µM (inactive) throughout. The GI50 in the assay on SNB-75 and with HT-29 was > 100 µM (inactive) in each case.

Regarding `COC(=O)c1c2c(cc3c1CCC3)CCC2`, the GI50 is 91.4 µM (inactive) in the assay with SK-OV-3; 21.6 µM (inactive) with MOLT-4; 80.7 µM (inactive) in the assay on NCI-H23; > 100 µM (inactive) in the assay on OVCAR-8; 29.9 µM (inactive) with SF-295; 92.7 µM (inactive) with SF-539. For the same molecule, the GI50 with IGROV-1 was > 100 µM (inactive); in the assay on M14, > 100 µM (inactive); with SF-268, 95.7 µM (inactive); with KM12 it was 65.3 µM (inactive); in the assay with MDA-MB-231, 37.7 µM (inactive); in the assay on BT-549 it was 95.9 µM (inactive). In addition, the GI50 is > 100 µM (inactive) with SN12C; > 100 µM (inactive) in the assay on HOP-62; 20.2 µM (inactive) in the assay with RPMI-8226; 82.2 µM (inactive) in the assay with OVCAR-4; 80.7 µM (inactive) in the assay with 786-0; 44.7 µM (inactive) with PC-3. Further, the GI50 is 28.4 µM (inactive) with SNB-75 and 26.3 µM (inactive) in the assay with HT-29.

As to `C/C(=N\N=C(/S)N(C)C)c1cccnn1`, the GI50 with SK-OV-3 was 1.26 µM (inactive); in the assay on MOLT-4 it was 0.188 µM (active); in the assay with NCI-H23, 1.13 µM (inactive); in the assay with OVCAR-8 it was 0.526 µM (active); with SF-295, 0.879 µM (active); with SF-539 it was 0.513 µM (active). The GI50 with IGROV-1 was 0.689 µM (active); in the assay with M14, 0.594 µM (active); in the assay with SF-268, 0.65 µM (active); in the assay on KM12, 2.48 µM (inactive); with MDA-MB-231, 0.745 µM (active); in the assay with BT-549, 0.869 µM (active). Moreover, the GI50 was 1.1 µM (active) in the assay with SN12C; 1.05 µM (active) with HOP-62; 0.466 µM (active) in the assay with RPMI-8226; 0.608 µM (active) with OVCAR-4; 0.486 µM (active) with 786-0; 0.385 µM (active) with PC-3. Besides, the GI50 in the assay with SNB-75 is 2.03 µM (inactive); in the assay with HT-29, 0.569 µM (active).

Regarding `N=C(N)SCC(=O)O`, the GI50 in the assay with SK-OV-3, with MOLT-4, in the assay with NCI-H23, in the assay with OVCAR-8, with SF-295 and with SF-539 was > 100 µM (inactive) throughout. For the same molecule, the GI50 with IGROV-1, with M14, with SF-268, with KM12, in the assay with MDA-MB-231 and in the assay with BT-549 was > 100 µM (inactive) in each case. Further, the GI50 with SN12C, in the assay with HOP-62, in the assay with RPMI-8226, in the assay on OVCAR-4, with 786-0 and in the assay with PC-3 was > 100 µM (inactive) in each case. For the same molecule, the GI50 with SNB-75 and in the assay on HT-29 was > 100 µM (inactive) throughout.

For `CC(C)(Cl)C(Br)CC/C(CBr)=C(/Cl)CCl.CC(C)(Cl)C(Br)CC/C(CBr)=C(\Cl)CCl` (stereo not given), the GI50 was 3.36 µM (inactive) with SK-OV-3; 0.417 µM (active) with MOLT-4; 2.43 µM (inactive) in the assay with NCI-H23; 1.75 µM (inactive) in the assay on OVCAR-8; > 10 µM (inactive) with SF-295; 2.07 µM (inactive) in the assay on SF-539. Also, the GI50 in the assay on IGROV-1 was 0.782 µM (active); in the assay with M14, 1.49 µM (inactive); in the assay on SF-268 it was 2.25 µM (inactive); with KM12 it was 2.02 µM (inactive); in the assay on MDA-MB-231, 1.83 µM (inactive); in the assay on BT-549, 2.01 µM (inactive). In addition, the GI50 in the assay with SN12C is 0.497 µM (active); in the assay on HOP-62, 3.92 µM (inactive); in the assay on RPMI-8226, 1.64 µM (inactive); with OVCAR-4, 2.74 µM (inactive); in the assay on 786-0 it was 1.66 µM (inactive); in the assay on PC-3 it was 2.33 µM (inactive). The GI50 was 2.74 µM (inactive) with SNB-75 and 2.06 µM (inactive) in the assay on HT-29.

In the case of `NCCSc1nc2ccccc2s1`, the GI50 in the assay with SK-OV-3 is 32.1 µM (inactive); with MOLT-4, 34.9 µM (inactive); in the assay on NCI-H23 it was 41.7 µM (inactive); with OVCAR-8, 43.2 µM (inactive); in the assay on SF-295, 23.4 µM (inactive); with SF-539, 17.3 µM (inactive). For the same molecule, the GI50 was 41.5 µM (inactive) in the assay with IGROV-1; 33.7 µM (inactive) in the assay with M14; 32.5 µM (inactive) with SF-268; 45.1 µM (inactive) in the assay on KM12; 40 µM (inactive) in the assay with MDA-MB-231; 31.5 µM (inactive) in the assay on BT-549. For the same molecule, the GI50 with SN12C is 38.7 µM (inactive); in the assay with HOP-62, 23.8 µM (inactive); with RPMI-8226, 31.9 µM (inactive); in the assay with OVCAR-4 it was 29 µM (inactive); in the assay on 786-0 it was 26.6 µM (inactive); with PC-3, 44 µM (inactive). Further, the GI50 in the assay with SNB-75 is 22.8 µM (inactive); with HT-29 it was 34 µM (inactive).

In the case of `O=C(NCCCNCCN1C(=O)c2cccc3cc([N+](=O)[O-])cc(c23)C1=O)c1cc(-c2ccccc2)nc2ccccc12`, the GI50 with SK-OV-3 is 8.91 µM (inactive); with MOLT-4, 0.347 µM (active); with NCI-H23, 3.02 µM (inactive); with OVCAR-8 it was 0.933 µM (active); in the assay with SF-295, 3.08 µM (inactive); in the assay with SF-539, 1.98 µM (inactive). Besides, the GI50 in the assay with IGROV-1 was 2.54 µM (inactive); in the assay with M14 it was 1.72 µM (inactive); with SF-268, 1.39 µM (inactive); in the assay on KM12, 4.4 µM (inactive); in the assay with MDA-MB-231 it was 3.01 µM (inactive); in the assay with BT-549, 6.15 µM (inactive). The GI50 in the assay on SN12C was 3.16 µM (inactive); in the assay with HOP-62 it was 6.49 µM (inactive); in the assay with RPMI-8226, 1.13 µM (inactive); in the assay with OVCAR-4, 3.2 µM (inactive); in the assay with 786-0, 1.45 µM (inactive); with PC-3 it was 3.61 µM (inactive). Besides, the GI50 with SNB-75 was 3.62 µM (inactive); with HT-29, 0.971 µM (active).

For the molecule `C#C[C@]1(O)CC[C@H]2[C@@H]3CCC4=C/C(=N\OCCN(CC)CC)CC[C@]4(C)[C@H]3CC[C@@]21C`, the GI50 in the assay with SK-OV-3 is 9.4 µM (inactive); in the assay on MOLT-4 it was 0.122 µM (active); in the assay on NCI-H23, 5.22 µM (inactive); in the assay with OVCAR-8 it was 7.24 µM (inactive); in the assay with SF-295, 2.16 µM (inactive); with SF-539 it was 4.26 µM (inactive). Further, the GI50 with IGROV-1 was 3.85 µM (inactive); in the assay with M14, 3.02 µM (inactive); with SF-268 it was 2.92 µM (inactive); in the assay with KM12 it was 2.92 µM (inactive); in the assay on MDA-MB-231, 13.6 µM (inactive); with BT-549, 10 µM (inactive). The GI50 in the assay on SN12C is 9.12 µM (inactive); in the assay with HOP-62 it was 3.58 µM (inactive); in the assay on RPMI-8226 it was 2.53 µM (inactive); in the assay with OVCAR-4, 12.5 µM (inactive); with 786-0, 2.7 µM (inactive); with PC-3, 3.18 µM (inactive). The GI50 in the assay on SNB-75 is 3.05 µM (inactive); in the assay with HT-29, 3.74 µM (inactive).

With `COc1c(O)cc(O)c2c(=O)cc(-c3ccccc3)oc12` [WOGONIN], the GI50 in the assay on SK-OV-3 is 77.8 µM (inactive); with MOLT-4, 36.1 µM (inactive); with NCI-H23, 42.6 µM (inactive); in the assay on OVCAR-8, 52.4 µM (inactive); with SF-295, 34.5 µM (inactive); in the assay on SF-539, 42.5 µM (inactive). The GI50 is 29.4 µM (inactive) with IGROV-1; 69 µM (inactive) with M14; 37.9 µM (inactive) in the assay on SF-268; 34 µM (inactive) in the assay on KM12; > 100 µM (inactive) in the assay with MDA-MB-231; 55.2 µM (inactive) in the assay on BT-549. Further, the GI50 in the assay with SN12C was 90.6 µM (inactive); with HOP-62, 21.7 µM (inactive); in the assay with RPMI-8226, 17.5 µM (inactive); with OVCAR-4, 77.4 µM (inactive); in the assay with 786-0, 51.9 µM (inactive); with PC-3 it was 51.1 µM (inactive). Further, the GI50 with SNB-75 was 56.1 µM (inactive); in the assay on HT-29 it was 51.9 µM (inactive).

(Values after ChEMBL document CHEMBL1201862, “PubChem BioAssay data set” (2004).)
